According to patent publication US9114119B2, “Use of serine palmitoyl transferase inhibitors for preventing and delaying inherited retinal degenerations and compositions thereof” (Universita' degli Studi di Milano, priority 2009, dated 2015):

Experiments:
[1] = test system: endogenous ceramide in the retina of rd10 mutant mice; experiment: Retinal endogenous ceramide levels (diacylglycerol kinase test) after single intravitreal injection, rd10 mice; type: in vivo, mouse; conditions: single intravitreal injection 500 nanoliters 188 mM at P19, retinas isolated at P21
Procedure: (§1) The levels of the sphingolipid endogenous ceramide were tested after isolation of the retina from anaesthetised rd10 mutant and wild-type (wt) mice of various age groups. The isolated retinas were treated for lipid extraction, and the total endogenous ceramide/inorganic phosphate ratio was determined with the diacylglycerol kinase test.
(§2) Single intravitreal injections of 500 nanoliters of myriocin (188 mM) were administered to the right eye of rd10 and wt mice aged P19. The vehicle alone (DMSO) was injected into the left eye of the same animals. The left and right retinas were isolated at P21, and treated separately for the biochemical ceramide test as explained above.

[2] = test system: endogenous ceramide in the retina of wt mice; experiment: Retinal endogenous ceramide levels (diacylglycerol kinase test) after single intravitreal injection, wt mice; type: in vivo, mouse; conditions: single intravitreal injection 500 nanoliters 188 mM at P19, retinas isolated at P21
Procedure: as §1, §2

[3] = test system: pyknotic photoreceptors of rd10 mice; experiment: Pyknotic photoreceptor count after intravitreal injection; type: in vivo, mouse
Procedure: as §2
The animals injected at P19 were collected at P21, and their eyes were enucleated and fixed. The left and right retinas were isolated, stained with fluorescent DNA-binding molecules, and mounted on slides. The external nuclear layer which contains the photoreceptor cores was sampled under the confocal microscope at regular intervals along the four retinal meridians. The images were exported to a computerised workstation, and the pyknotic photoreceptors were counted in each scanned field. The total number of pyknotic photoreceptors was calculated for each pair of treated and control retinas.

[4] = test system: retinal morphology of rd10, wt and Thy1-GFP mice; conditions: mouse, in vivo
[5] = test system: rd10 and wt mice; experiment: Toxicity studies of intraocular injections; type: in vivo, mouse
Text: It should be noted that myriocin has only rarely been used in vivo to date, and never injected intraocularly. The dose was chosen on the basis of the available literature on cultured cells, calculating a dilution of ⅞ times, due to the vitreous humour. A time window was selected for intraocular administration which preceded the peak death of the apoptotic photoreceptors, for the crucial reason of preventing the majority of photoreceptors from entering the apoptotic cycle.

[6] = test system: photoreceptors of rd10 mice; conditions: mouse, in vivo
Text: The functional recovery of the photoreceptors was studied by recording a flash electroretinogram (ERG), a technique widely used to test the retinal physiology of human patients, especially those suffering from RP.

[7] = test system: photoreceptors of rd10 mice; experiment: Rows of photoreceptor nuclei in the outer nuclear layer (ONL) after nanosphere eyedrops; type: in vivo; conditions: rd10 mice aged P24, MYR-SLN treated vs control mouse (FIG. 1a)
Text: Following ERG recordings, animals were enucleated, their eyes fixed and sectioned and retinal sections stained with fluorescent nuclear dyes to evaluate the thickness of the outer nuclear layer (ONL) and the overall retinal morphology.
A quantitative analysis of the average number of rows of nuclei in the ONL of MYR-SLN and U-SLN (Unloaded-Solid Lipid Nanospheres) treated mice is given in FIG. 1b.

Question: `CCCCCCC(=O)CCCCCC/C=C/C[C@@H](O)[C@H](O)[C@@](N)(CO)C(=O)O` [myriocin] was tested. Which “retinal ceramide levels vs control (DMSO) eyes” value [1] did it give?
Answer: Significantly lower ceramide levels

Question: And the retinal ceramide levels [2]?
Answer: did not significantly reduce

Question: And the “reduction of photoreceptor death rate (pyknotic photoreceptor count)” value ([3]; rd10 mice injected at P19, collected at P21, vs DMSO eye, n=17)?
Answer: approx. 50%

Question: And the “number of pyknotic (dying) photoreceptors” value ([3]; rd10 mutant mice, intravitreal injection)?
Answer: marked reduction

Question: What about the “morphology of ganglion cells and retinal stratification” value [4] of the same compound?
Answer: excellent maintenance of the morphology of the ganglion cell and structure

Question: What about the retinal morphology [4] of the same compound?
Answer: normal retinal morphologies

Question: What about the “adverse effects of intraocular injections” value ([5]; rd10 or wt mice) of the same compound?
Answer: do not cause adverse effects

Question: And the “inflammatory response symptoms or increased ocular reactivity” value ([5]; treated animals, intraocular injection)?
Answer: no general or local inflammatory response symptoms

Question: And the “recovery of ERG response” value [6]?
Answer: no recovery of ERG response/reaction

Question: And the “number of preserved nuclear rows in the ONL” value [7]?
Answer: significantly higher
